# Test results from patent US20140187430A1, “Compositions and Methods for Identifying Autism Spectrum Disorders” (George Washington University, priority 2010, published 2014).
# “Also recorded” adds a separate entry of the source.
# Assays:
# Assay type in all cases: cell-based, human
# BCL-2 = assay: qRT-PCR of BCL-2 transcript in LCL after 5-Aza-2-deoxycytidine treatment; conditions: 5 μM, 48 hours
# Description: (§1) LCL, which were obtained from the Autism Genetic Research Exchange (AGRE; Los Angeles, Calif.) were derived from lymphocytes of autistic and normal siblings and cultured as previously described (Hu et al. (2006) BMC Genomics 7, 118). Demethylating treatments were carried out by incubating cells in culture with 5 μM 5-Aza-2-deoxycytidine (Fluka, St. Louis, Mo.) or vehicle control, DMSO (FisherBioTech, Pittsburgh, Pa.) for 48 hours before harvesting cells.
# (§2) Genomic DNA was isolated using the Qiagen DNeasy™ Blood and Tissue Kit (Valencia, Calif.) and used for bisulfite modification for methylation analyses. Total RNA was isolated using TRIzol reagent (Invitrogen, Carlsbad, Calif.) according to the manufacturer's protocol and used for gene expression analyses by quantitative RT-PCR. […]
# (§3) Two candidate genes, BCL-2 and RORA, were chosen for quantitative real-time (RT)-PCR analysis to examine the correlation between expression of mRNA transcript and methylation status as predicted by microarray analysis, as well as to examine the effect of 5-Aza-2-deoxycytidine treatment on transcript levels. […] The qPCR reactions (in triplicate) were analyzed on an ABI Prism 7300 Sequence Detection System and transcript levels of BCL-2 and RORA were quantified and normalized to standard curves obtained using universal 18S rRNA primers.
# [1] = test system: upstream CpG island region of RORA; assay: Methylation-specific PCR (MSP) of upstream CpG island region of RORA in LCL; conditions: LCL of autistic individuals; 5 μM, 48 hours
# Description: as §1
# Two ug of genomic DNA isolated from LCL were treated with sodium bisulfite using the Active Motif MethylDetector kit (Carlsbad, Calif.) according to the manufacturer's specifications. Successful bisulfite treatment and conversion was verified using positive control PCR primers for the p16 (CDKN2A) locus provided in the MethylDetector kit.
# For methylation-specific PCR (MSP), 2 sets of primers spanning a region approximately 300 bp upstream of the first exon of RORA (UHNhscpg0014103; chr15:59309160-59309428) were designed according to assumed differences in methylation status (i.e., fully methylated or fully unmethylated). These primers were previously successful in identifying methylation-specific silencing of RORA in several gastric cancer cell lines (Yamashita et al. (2006) Cancer Science 97, 64-71). Bisulfite-modified genomic DNA was used as a template for PCR and PCR products were resolved by agarose gel electrophoresis.
# RORA = assay: qRT-PCR of RORA transcript in LCL after 5-Aza-2-deoxycytidine treatment; conditions: 5 μM, 48 hours
# Description: as §1, §2, §3
# [2] = LCL from the "mild" undiagnosed co-twins
# [3] = LCL of autistic individuals, vs DMSO vehicle
structure (smiles),measurement,setting,value
Nc1ncn([C@H]2C[C@H](O)[C@@H](CO)O2)c(=O)n1 [5-Aza-2-deoxycytidine],change in BCL-2 expression level with treatment,BCL-2; [2],no statistically significant increases
same,fold-change in BCL-2 transcript expression following treatment,BCL-2; [3],1.5 fold
same,methylated PCR product of RORA promoter region (MSP) following treatment,[1],absence of methylated product; also recorded: absence of methylation
same,change in RORA expression level with treatment,RORA; [2],no statistically significant increases
same,fold-change in RORA transcript expression following treatment,RORA; [3],1.8 fold
